Data reported in PubChem BioAssay AID330 (DTP/NCI, 2004).
Values joined by “and” are separate entries in the source; they are usually repeats but may differ in a detail not shown here. Identical values can stand only once. Toxic doses and inconclusive results are not listed.

System: P388 leukemia ip, CD2F1 mice, survival T/C
Experiment: NCI In Vivo Anticancer Drug Screen. Data for tumor model P388 Leukemia (intraperitoneal) in CD2F1 (CDF1) mice
Conditions: endpoint: median survival time, higher = longer survival
Method in brief: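 Mice carrying the transplanted tumor received test compound or vehicle. Survival was recorded in each group, and the value is the treated-group measurement divided by that of the vehicle-treated control group.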

[1] = dose: 60.0 mg/kg/injection, schedule: Q01DX005 (ip), vehicle: saline
[2] = dose: 120.0 mg/kg/injection, schedule: Q01DX005 (ip), vehicle: saline
[3] = dose: 240.0 mg/kg/injection, schedule: Q01DX005 (ip), vehicle: saline
[4] = dose: 12.5 mg/kg/injection, schedule: Q01DX005 (ip), vehicle: Klucel (hydroxypropylcellulose) (HPC)
[5] = dose: 25.0 mg/kg/injection, schedule: Q01DX005 (ip), vehicle: Klucel (hydroxypropylcellulose) (HPC)
[6] = dose: 50.0 mg/kg/injection, schedule: Q01DX005 (ip), vehicle: Klucel (hydroxypropylcellulose) (HPC)
[7] = dose: 100.0 mg/kg/injection, schedule: Q01DX005 (ip), vehicle: Klucel (hydroxypropylcellulose) (HPC)
[8] = dose: 50.0 mg/kg/injection, schedule: Q01DX009 (ip), vehicle: saline with Tween-80
[9] = dose: 100.0 mg/kg/injection, schedule: Q01DX009 (ip), vehicle: saline with Tween-80
[10] = dose: 200.0 mg/kg/injection, schedule: Q01DX009 (ip), vehicle: saline with Tween-80
[11] = dose: 200.0 mg/kg/injection, schedule: Q01DX005 (ip), vehicle: Klucel (hydroxypropylcellulose) (HPC)

C=C1C2(OS(=O)(=O)C(F)(F)F)CCC(C2)C1(C)C (stereo unspecified)
T/C [1]: 103 % of control
T/C [2]: 99 % of control
T/C [3]: 100 % of control

COc1ccc2cc1Oc1ccc(cc1)CC1c3cc(OC)c(cc3CCN1C)Oc1c(OC)c(OC)cc3c1C(C2)N(C)CC3 (stereo unspecified)
T/C [4]: 92 % of control
T/C [5]: 95 % of control
T/C [6]: 94 % of control
T/C (dose: 100.0 mg/kg/injection, schedule: Q01DX001 (ip), vehicle: saline with Tween-80): 98 % of control
T/C [7]: 86 % of control
T/C (dose: 200.0 mg/kg/injection, schedule: Q01DX001 (ip), vehicle: saline with Tween-80): 86 % of control
T/C (dose: 400.0 mg/kg/injection, schedule: Q01DX001 (ip), vehicle: saline with Tween-80): 86 % of control

O=C(NC(CCSSCCC(NC(=O)OCc1ccccc1)C(=O)O)C(=O)O)OCc1ccccc1 (stereo unspecified)
T/C (dose: 12.5 mg/kg/injection, schedule: Q01DX009 (ip), vehicle: other): 98 % of control
T/C (dose: 25.0 mg/kg/injection, schedule: Q01DX009 (ip), vehicle: other): 98 % of control
T/C (dose: 50.0 mg/kg/injection, schedule: Q01DX009 (ip), vehicle: other): 101 % of control
T/C (dose: 100.0 mg/kg/injection, schedule: Q01DX009 (ip), vehicle: other): 100 % of control
T/C (dose: 200.0 mg/kg/injection, schedule: Q01DX009 (ip), vehicle: other): 103 % of control

CC(C)(C)COSc1ccccc1
T/C (dose: 100.0 mg/kg/injection, schedule: Q04DX003 (ip), vehicle: saline with Tween-80): 106 % of control

CC(/C=C/c1ccc(O)cc1)=N\NC(N)=S
T/C (dose: 3.75 mg/kg/injection, schedule: Q01DX005 (ip), vehicle: Klucel (hydroxypropylcellulose) (HPC)): 103 % of control
T/C (dose: 7.5 mg/kg/injection, schedule: Q01DX005 (ip), vehicle: Klucel (hydroxypropylcellulose) (HPC)): 99 % of control
T/C (dose: 15.0 mg/kg/injection, schedule: Q01DX005 (ip), vehicle: Klucel (hydroxypropylcellulose) (HPC)): 99 % of control
T/C (dose: 30.0 mg/kg/injection, schedule: Q01DX005 (ip), vehicle: Klucel (hydroxypropylcellulose) (HPC)): 99 % of control and 104 % of control

N#Cc1cc2ccncc2c2ccccc12
T/C (dose: 25.0 mg/kg/injection, schedule: Q01DX009 (ip), vehicle: saline with Tween-80): 90 % of control
T/C [8]: 93 % of control and 95 % of control
T/C [9]: 98 % of control
T/C [10]: 106 % of control and 89 % of control
T/C (dose: 400.0 mg/kg/injection, schedule: Q01DX009 (ip), vehicle: saline with Tween-80): 114 % of control

CCC(CN)C1=Nc2ccccc2C1 (stereo unspecified)
T/C (dose: 25.0 mg/kg/injection, schedule: Q04DX003 (ip), vehicle: saline): 101 % of control
T/C (dose: 50.0 mg/kg/injection, schedule: Q04DX003 (ip), vehicle: saline): 96 % of control
T/C (dose: 100.0 mg/kg/injection, schedule: Q04DX003 (ip), vehicle: saline): 103 % of control and 111 % of control

C=Cc1cnc([N+](=O)[O-])n1C
T/C (dose: 50.0 mg/kg/injection, schedule: Q01DX009 (ip), vehicle: Klucel (hydroxypropylcellulose) (HPC)): 110 % of control and 123 % of control
T/C (dose: 100.0 mg/kg/injection, schedule: Q01DX009 (ip), vehicle: Klucel (hydroxypropylcellulose) (HPC)): 111 % of control
T/C (dose: 200.0 mg/kg/injection, schedule: Q01DX009 (ip), vehicle: Klucel (hydroxypropylcellulose) (HPC)): 153 % of control

Cc1cc(Cl)nc2c1ccn2C1OC(CO)C(O)C1O (stereo unspecified)
T/C (dose: 32.0 mg/kg/injection, schedule: Q01DX001 (ip), vehicle: saline): 100 % of control
T/C (dose: 64.0 mg/kg/injection, schedule: Q01DX001 (ip), vehicle: saline): 100 % of control
T/C (dose: 128.0 mg/kg/injection, schedule: Q01DX001 (ip), vehicle: saline): 102 % of control

NC(Cc1ccc(O)c(Cl)c1)C(=O)O (stereo unspecified)
T/C (dose: 50.0 mg/kg/injection, schedule: Q01DX005 (ip), vehicle: saline): 98 % of control
T/C (dose: 100.0 mg/kg/injection, schedule: Q01DX005 (ip), vehicle: saline): 98 % of control
T/C (dose: 200.0 mg/kg/injection, schedule: Q01DX005 (ip), vehicle: saline): 95 % of control

CCCn1c(CC)nc([N+](=O)[O-])c1Sc1ncnc2nc[nH]c12
T/C [4]: 107 % of control
T/C [5]: 123 % of control
T/C [11]: 111 % of control

O=S(=O)(O)CCCNC(CO)(CO)CO
T/C [1]: 106 % of control
T/C [2]: 107 % of control
T/C [3]: 107 % of control

O/N=C1/CN(CCN2CC(NO)=N/C(=N\O)C2)CC(NO)=N1
T/C [6]: 90 % of control
T/C [7]: 89 % of control
T/C [11]: 89 % of control

CN1CC(=O)NC2(CCCC2)C1=O
T/C (dose: 37.5 mg/kg/injection, schedule: Q04DX002 (ip), vehicle: Klucel (hydroxypropylcellulose) (HPC)): 102 % of control
T/C (dose: 75.0 mg/kg/injection, schedule: Q04DX002 (ip), vehicle: Klucel (hydroxypropylcellulose) (HPC)): 101 % of control
T/C (dose: 150.0 mg/kg/injection, schedule: Q04DX002 (ip), vehicle: Klucel (hydroxypropylcellulose) (HPC)): 99 % of control
T/C (dose: 300.0 mg/kg/injection, schedule: Q04DX002 (ip), vehicle: Klucel (hydroxypropylcellulose) (HPC)): 105 % of control

CNC(=O)OCc1c(COC(=O)NC)c(-c2ccco2)n2c1CCC2
T/C (dose: 3.75 mg/kg/injection, schedule: Q01DX005 (ip), vehicle: saline): 100 % of control
T/C (dose: 7.5 mg/kg/injection, schedule: Q01DX005 (ip), vehicle: saline): 101 % of control
T/C (dose: 15.0 mg/kg/injection, schedule: Q01DX005 (ip), vehicle: saline): 120 % of control

CCCCCCCCCCCCCCSCCCCCCCCCCCCCC
T/C [5]: 100 % of control
T/C [6]: 99 % of control
T/C [7]: 92 % of control
T/C [11]: 92 % of control

CC(C)(Oc1ccc(Cl)cc1)C(=O)OCCCC(=O)NC1CC(C)(C)N(O)C(C)(C)C1
T/C (dose: 200.0 mg/kg/injection, schedule: Q01DX001 (ip), vehicle: saline): 105 % of control
T/C (dose: 400.0 mg/kg/injection, schedule: Q01DX001 (ip), vehicle: saline): 115 % of control

CC1=C(C)C(=O)OC(C(C)(O)C2(O)CCC3(O)C4CC(Cl)C5(O)C(O)C=CC(=O)C5(C)C4CCC32C)C1 (stereo unspecified)
T/C (dose: 10.0 mg/kg/injection, schedule: Q01DX005 (ip), vehicle: saline + alcohol): 106 % of control
T/C (dose: 20.0 mg/kg/injection, schedule: Q01DX005 (ip), vehicle: saline + alcohol): 108 % of control
T/C (dose: 25.0 mg/kg/injection, schedule: Q01DX005 (ip), vehicle: saline + alcohol): 104 % of control
T/C (dose: 40.0 mg/kg/injection, schedule: Q01DX005 (ip), vehicle: saline + alcohol): 112 % of control
T/C (dose: 50.0 mg/kg/injection, schedule: Q01DX005 (ip), vehicle: saline + alcohol): 100 % of control and 104 % of control
T/C (dose: 80.0 mg/kg/injection, schedule: Q01DX005 (ip), vehicle: saline + alcohol): 117 % of control
T/C (dose: 100.0 mg/kg/injection, schedule: Q01DX005 (ip), vehicle: saline + alcohol): 104 % of control (2×) and 120 % of control
T/C (dose: 200.0 mg/kg/injection, schedule: Q01DX005 (ip), vehicle: saline + alcohol): 99 % of control and 109 % of control and 111 % of control

CC(=O)Nc1ccc(N=NNc2ccccc2)cc1
T/C (dose: 3.12 mg/kg/injection, schedule: Q01DX001 (ip), vehicle: Klucel (hydroxypropylcellulose) (HPC)): 100 % of control
T/C (dose: 6.25 mg/kg/injection, schedule: Q01DX001 (ip), vehicle: Klucel (hydroxypropylcellulose) (HPC)): 93 % of control
T/C (dose: 12.5 mg/kg/injection, schedule: Q01DX001 (ip), vehicle: Klucel (hydroxypropylcellulose) (HPC)): 99 % of control and 97 % of control

O=C(Nc1ccc(NC(=O)c2ccncc2)cc1)c1ccncc1
T/C (dose: 50.0 mg/kg/injection, schedule: Q01DX005 (ip), vehicle: saline with Tween-80): 97 % of control
T/C (dose: 100.0 mg/kg/injection, schedule: Q01DX005 (ip), vehicle: saline with Tween-80): 93 % of control
T/C (dose: 200.0 mg/kg/injection, schedule: Q01DX005 (ip), vehicle: saline with Tween-80): 97 % of control

CCOC1CC(C)(C)c2c(-c3ccccc3)nn(-c3ccccc3)c2O1 (stereo unspecified)
T/C [8]: 94 % of control
T/C [9]: 100 % of control
T/C [10]: 98 % of control

CC1=NOC(=O)C1N=Nc1ccc(Br)cc1C (stereo unspecified)
T/C (dose: 100.0 mg/kg/injection, schedule: Q04DX002 (ip), vehicle: saline with Tween-80): 101 % of control
T/C (dose: 100.0 mg/kg/injection, schedule: Q05DX002 (ip), vehicle: saline with Tween-80): 99 % of control
T/C (dose: 200.0 mg/kg/injection, schedule: Q04DX002 (ip), vehicle: saline with Tween-80): 98 % of control
T/C (dose: 200.0 mg/kg/injection, schedule: Q05DX002 (ip), vehicle: saline with Tween-80): 99 % of control
T/C (dose: 400.0 mg/kg/injection, schedule: Q04DX002 (ip), vehicle: saline with Tween-80): 102 % of control
